# Laboratory results from patent publication US20050239717A1, “Higher fullerenes useful as radical scavengers” (Nano-C, Inc., priority 2003, published 2005).
# Assay: Radical scavenging efficiency test: cigarette smoke bubbled through coarse glass frit into decalin with scavenger, DHR 6G fluorescent probe
# Conditions: 150 μM to 300 μM, FIG. 6B
# Description: Tests were conducted to study the effectiveness of higher fullerenes against radicals present in cigarette smoke (predominantly peroxyl radical). The cigarette smoke was bubbled through a cylindrical, coarse glass frit into a solvent (decalin) in which radical scavengers were dissolved. The smoke then exited this solvent and was passed through a second flask, in which a fluorescent probe that fluoresces upon oxidation by radicals was used (Dihydrorhodamine 6G (DHR 6G), purchased from Molecular Probes). The variation of fluorescent signal corresponds directly to the radical content of the cigarette smoke, and thus a measure of the reduction of radicals by the radical scavenger is measured. Signals were measured every 10 seconds.
# Tests were conducted to study the sensitivity of the test apparatus in Example 2 to varying concentrations of Vitamin E as a radical scavenger to scavenge radicals present in cigarette smoke (predominantly peroxyl radical). The cigarette smoke was bubbled through a cylindrical, coarse glass frit into a solvent (decalin) in which radical scavengers were dissolved. […] The variation of fluorescent signal corresponds directly to the radical content of the cigarette smoke, and thus a measure of the reduction of radicals by the radical scavenger is measured. Signals were measured every 10 seconds.
substance,measurement,value
Vitamin E,Change of fluorescence signal on doubling the scavenger concentration,very small deflection
